The data set in a line: gradient 5% acetonitrile 3 min, to 50% in 2 min, to 85% in 15 min, held 3 min, 100 µL/min. The conditions noted are these: column: Zorbax Extend-C18 2.1 x 50 mm; eluents: water / acetonitrile, 0.1% formic acid. In short, it runs like this:
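Over 3 months, pure standards in mixtures of ~100 molecules were run by HPLC coupled to a quadrupole time-of-flight mass spectrometer in positive and negative ionization mode. The column was a Zorbax Extend-C18 (2.1 × 50 mm, 1.8 μm) at 100 μL/min, eluted with water and acetonitrile each holding 0.1% formic acid, with 40 μL dead and 900 μL dwell volumes. Retention time was determined from adduct peaks chosen by software and checked manually.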
With `O=C(CN1CC(c2nc(Cc3ccccc3)no2)C1)NCc1ccc(F)cc1`, the RP-LC retention time is 595 s. Consider `O=C(CCc1c(-c2ccc(F)cc2)nc2ccccn12)Nc1ccccc1C(F)(F)F`, for which the RP-LC retention time worked out at 691 s. The compound `CCS(=O)(=O)Nc1cccc(OCc2nnc(-c3ccc(C)cc3)o2)c1` came in with an RP-LC retention time of 867 s. In turn, `COc1ccc(CNC(=O)C2=C3CCCN3c3ccc(F)cc3S2(=O)=O)cc1` came in with an RP-LC retention time of 876 s. Compound `Fc1ccc(F)c(CNc2nnc(-c3nc(C4CC4)no3)c3ccccc23)c1` displayed an RP-LC retention time of 672 s. In the case of `CCOC(=O)C(Cc1c[nH]c2ccccc12)NC(=O)COc1ccc(Cl)cc1` (stereo not given), the RP-LC retention time was determined as 1010 s.

`CCSc1nnc(-c2nn(C)c3c2CN(S(=O)(=O)c2cccc(Cl)c2)CC3)n1CC` had an RP-LC retention time of 989 s. Compound `CC(C)C(=O)N1CCc2ccc([N+](=O)[O-])cc2C1` displayed an RP-LC retention time of 728 s. In the case of `CN(CCCNC(=O)c1ccc2c(c1)NC(=O)C1CCCCN21)C1CCCCC1` (stereo not given) it was 623 s; in that of `O=C1NCCCCCCN(C(=O)c2cccs2)[C@H]2CCC[C@@H]12`, 745 s; in that of `Cc1cc(Nc2nc(C(=O)NCCCN3CCOCC3)cc3occc23)ccc1Br`, 724 s.

Regarding `CCC(=O)N1CCCn2nc(-c3cccnc3)cc2C1`, the RP-LC retention time stood at 562 s. Compound `NC(=O)c1cc[nH]c1C1CCCN(C(=O)c2ccc(Cn3cncn3)o2)C1` (stereo not given) yielded an RP-LC retention time of 560 s. Regarding `O=C(Nc1ccc(SCc2nnc(-c3ccc4c(c3)OCO4)o2)cc1)C1CCCCC1`, the RP-LC retention time was 1020 s.

In the case of `CCC(=O)n1nc(C)c(S(=O)(=O)N2CCC(C)CC2)c1C`, the RP-LC retention time was 1150 s. The compound `CC(C)CC(=O)N1CCCC(c2nc(CNC(=O)C(C)C)cs2)C1` (stereo not given) displayed an RP-LC retention time of 705 s.

Take `Cc1ccccc1C(=O)N1C[C@@H]2C[C@H]1C[C@@H]2NS(=O)(=O)c1cccs1`: the RP-LC retention time is 776 s.

Compound `Cc1ccc(NC(=O)C2CCN(S(=O)(=O)c3ccc4c(c3)CCCC(=O)N4)CC2)c(C)c1` displayed an RP-LC retention time of 774 s. Take `CCn1cc(CCNC(=O)Nc2c(C)cccc2C)c2cccnc21`: the RP-LC retention time was 705 s. The compound `CCCCN(C)C(=O)C1CCN(c2cncnc2N2CCOCC2)CC1` came in with an RP-LC retention time of 614 s. For `O=C(Cn1nc2c3sc(N4CCCCC4)nc3ncn2c1=O)Nc1ccc(Cl)cc1` the value was 832 s. Compound `CCc1nnc(-c2cc(NS(=O)(=O)CC)c(C)s2)o1` displayed an RP-LC retention time of 810 s. With `Cc1ccc(-n2c(=O)c3c(cc(C)n3C)n(CC(=O)Nc3ccc(Br)cc3F)c2=O)cc1`, the RP-LC retention time amounted to 944 s.

Regarding `Cc1ccc(-c2nc(CN3C(=O)C(O)(c4ccccc4)c4ccccc43)c(C)o2)cc1` (stereo not given), the RP-LC retention time came to 1120 s. Take `Cc1oc(C(C)C)nc1C(=O)NCc1ccccc1C(F)(F)F`: the RP-LC retention time was found to be 1050 s.

For the compound `O=C(Nc1ccc2c(c1)OCCO2)N1CCc2nc(-c3ccccc3)ncc2C1`, the RP-LC retention time is 848 s. The compound `CCn1ccc(C(=O)N2CCC(N3C(=O)C(O)C34CCCCC4)CC2)n1` (stereo not given) displayed an RP-LC retention time of 603 s. `Cc1ncc2c(n1)C[C@@H]1CC[C@H]2N1S(=O)(=O)Cc1ccccc1`: the RP-LC retention time is 706 s.

With `Cc1cc(C(=O)N2CCCCC2)c2c(=O)n(CC(=O)NC3CCCCC3)c(=O)n(C)c2n1`, the RP-LC retention time is 786 s. The compound `COc1ccccc1-c1noc(C2CCCN2C(=O)c2ccccn2)n1` (stereo not given) showed an RP-LC retention time of 725 s. In turn, `Cc1ccc(-n2nc3c(=O)n(CCCC(=O)NCc4ccc(C)o4)nc(C)c3c2C)cc1` returned an RP-LC retention time of 817 s. For the compound `Cc1cc(NC(=O)C(C)n2nc(-c3ccc(F)cc3)ccc2=O)on1` (stereo not given), the RP-LC retention time was 735 s. In the case of `CC1CCC[C@H](O)CCCCCc2cc(O)cc(O)c2C(=O)O1` (stereo not given in full) it was 862 s. In the case of `C[C@@H]1CN(C(=O)c2ccoc2)C[C@H]1c1nc(-c2ccncc2)no1` it was 678 s; in that of `Cc1ccccc1CNC(=O)C1(C)CCCN(C(=O)Nc2ccc(F)c(Cl)c2)C1` (stereo not given), 1040 s. Turning to `Cc1[nH]c2ccc(F)cc2c1CCNCc1ccccn1`, the RP-LC retention time was 572 s. `Cc1nc(NC(=O)C2COCC(=O)N2Cc2ccccc2)sc1C(=O)N(C)C` (stereo not given) came in with an RP-LC retention time of 615 s. In turn, `COC[C@@H]1CN(c2cnccn2)C[C@H]1C(=O)NCCn1ccnc1` came in with an RP-LC retention time of 498 s.

As for `Cc1cc(NC(=O)C(=O)NCCc2ccc(S(N)(=O)=O)cc2)no1`, the RP-LC retention time is 613 s.

The compound `COc1cc(NC(=O)N2CCC(C)(C(=O)NCc3ccc(F)cc3)CC2)cc(OC)c1OC` registered an RP-LC retention time of 737 s. In the case of `CCn1cc(S(=O)(=O)N2CCC(C3CCN(C(=O)NC)CC3)C2)cn1` (stereo not given) it was 622 s. Regarding `COc1ccc(OC)c(S(=O)(=O)N2CCCC(C)(C(=O)NCc3ccc(F)cc3)C2)c1` (stereo not given), the RP-LC retention time was determined as 916 s. In the case of `CCC1Oc2ccc(S(=O)(=O)N3CCC(C(=O)Nc4ccccc4C)CC3)cc2NC1=O` (stereo not given) it was 814 s; in that of `O=C(NCc1ccco1)C1CCCN(c2ncccc2-c2noc(C3CCC3)n2)C1` (stereo not given), 872 s; in that of `O=c1ccc(-c2nc(-c3ccncc3)no2)cn1Cc1noc(C2CCCC2)n1`, 719 s. In the case of `O=C(Nc1cc(F)ccc1F)C1CCN(C(=O)c2cccn2-c2cccnc2)CC1` it was 728 s. For `O=C(Nc1ccc(S(=O)(=O)N2CCCCC2c2cccnc2)cc1)c1ccccc1F` (stereo not given) the value was 617 s; for `CCc1cc(=O)n(CC(=O)Nc2ccc(F)c(F)c2)c(N2CCOCC2)n1`, 756 s.

The compound `COc1cc(OC)c(NC(=O)Cn2cc3c(n2)CCCC3)cc1Cl` registered an RP-LC retention time of 906 s. Compound `COc1ccc(C2CC(=O)N(c3ccc(F)c(F)c3)C(=O)C2)cc1OC` yielded an RP-LC retention time of 852 s. Compound `O=C(NCc1ccc(F)cc1F)C1CCN(C(=O)c2ncn3c2COC(c2ccccc2)C3)CC1` (stereo not given) displayed an RP-LC retention time of 784 s. `COc1cc(NC(=O)Cc2csc3nc(-c4cccc(Br)c4)cn23)cc(OC)c1` came in with an RP-LC retention time of 974 s.

The compound `O=S(=O)(NC1CCCC1)c1ccc(-c2nnc(C3CC3)o2)o1` had an RP-LC retention time of 812 s. Regarding `CCNC(=O)N1CC=C(C(=O)Nc2cccc(F)c2)CC1`, the RP-LC retention time worked out at 673 s. As for `COCCN1CC(CO)C2(CCN(Cc3ccc(F)c(Cl)c3)CC2)C1` (stereo not given), the RP-LC retention time came to 550 s. For `Cc1cc(NC(=O)C2CCCN(c3ccc(-c4ccc(Cl)cc4)nn3)C2)on1` (stereo not given) the value was 685 s; for `CC(C)Oc1ccc(-c2noc(Cn3nc(-c4ccc5c(c4)OCO5)ccc3=O)n2)cc1`, 1080 s; for `O=C(CCS(=O)(=O)c1ccccc1)NCc1ccsc1`, 671 s. Compound `CSc1ccc(CNS(=O)(=O)c2cc3c(s2)CCN(C(=O)C2CC2)C3)cc1` had an RP-LC retention time of 872 s.

In the case of `CCc1ccc(NC(=O)Nc2cnn(-c3ncc(N4CCCC4)cn3)c2)cc1`, the RP-LC retention time was found to be 880 s. For `Cc1ccsc1C(=O)N1C[C@@H]2CCCN3CCC[C@@H]([C@H]23)[C@H]1CCCC(=O)N1CCOCC1` the value was 593 s; for `O=C(Cc1nnc2cc(-c3nc(C4CC4)no3)ccn12)Nc1ccc(Cl)cc1`, 816 s; for `Cc1ccc(C2CC(=O)c3cnc(Nc4nc(C)c5cccc(C)c5n4)nc3C2)cc1` (stereo not given), 794 s. `O=C(Nc1cccnc1N1CCOCC1)C1CCC1` came in with an RP-LC retention time of 623 s. Regarding `c1ccc(CCCCN2CCC(c3ccccc3)CC2)cc1`, the RP-LC retention time worked out at 851 s. The compound `COCCNC(=O)C(C)n1nc(C)c2c(C)n(-c3ccccc3)nc2c1=O` (stereo not given) gave an RP-LC retention time of 695 s. In the case of `N#Cc1cccc(NC(=O)CN2CCc3[nH]c4c(F)c(Cl)ccc4c(=O)c3C2)c1` it was 913 s; in that of `CN(C)c1ccc2c(c1)CN(C(=O)c1ccoc1)CCO2`, 573 s. In turn, `CCCS(=O)(=O)N1CC(=O)N(c2ccccc2F)C(C)(C(=O)NC2CCCCCCC2)C1` (stereo not given) registered an RP-LC retention time of 997 s. In the case of `Cc1sc2ncnc(SCc3ccco3)c2c1C` it was 1150 s; in that of `O=C(Nc1ccc(OCc2nnc(-c3ccccc3)o2)cc1)c1ccnc(Cl)c1`, 908 s. In the case of `COc1cccc(NC(=O)Nc2c(-c3ccsc3)nc3ccccn23)c1` it was 639 s; in that of `Cc1oc(-c2[nH]ncc2C(=O)N2CCCCC2)cc1S(=O)(=O)N1CCOCC1`, 654 s. As to `CN(C)c1ccc(-c2nc3cnccn3c2Nc2cccc(Cl)c2)cc1`, the RP-LC retention time came to 879 s. For `C=CCNC(=O)c1cn(-c2ccc(-c3nc(C(C)C)no3)cn2)cn1`, the RP-LC retention time was found to be 824 s.

For `O=C(c1cccc(Cl)c1)N1CCC(Cc2nnc(-c3ccccc3)o2)CC1`, the RP-LC retention time was found to be 891 s. In the case of `Cc1cc(C)n(Cc2ccc(C(=O)NCC3Cn4cccc4C(=O)N3C)o2)n1` (stereo not given), the RP-LC retention time stood at 634 s.

`Cc1[nH]c(C)c(S(=O)(=O)N2CCC(C(=O)N3CCCCC3C)CC2)c1C(=O)N1CCCCC1` (stereo not given) registered an RP-LC retention time of 724 s. In turn, `CCCCC(=O)Nc1ccc(SCc2nnc(-c3ccc4c(c3)OCO4)o2)cc1` had an RP-LC retention time of 948 s.

`CCn1nnc(NCc2ccc(-c3cccc(Cl)c3)o2)n1` showed an RP-LC retention time of 1010 s.

Values taken from the METLIN SMRT retention time set (Domingo-Almenara et al. 2019).
